# Source: ChEMBL document CHEMBL5729609, “Indoleamine-2,3-dioxygenase inhibitor, preparation method therefor and use thereof” (2023)
# Target: Indoleamine 2,3-dioxygenase 1 (Homo sapiens, UniProt P14902)
# Experiment: Inhibitory Activity Assay: IDO1 (His-tag) enzyme(BPS Bioscience), L-tryptophan (Sigma), methylene blue (Sigma), Catalase originated from the liver of cattle (Sigma), L-ascorbic acid (Sigma), glycerol (Sigma), potassium dihydrogen phosphate solution (Sigma), Tween 20 (Sigma), automatic sampling platformLiquid handler (Bravo & Echo), microplate ReaderSpectraMax M5e (Molecular Devices). Test Method of Compounds: The Compounds are Determined by Absorbance Test Method:The tested compounds are dissolved in DMSO to prepare a high concentration of storage solution. The stock solution of reference compound was diluted with DMSO to prepare a 100× solution. In the first column of the working plate, 8 μL above tested compounds and 8 μL 100× reference compound were respectively added as the highest concentration, and then the highest concentrations were subjected to three times dilution to obtain 11 concentrations and prepare 100× solution. 0.5 μL solution was transferred from the above plate to the detection plate. To each well was added 0.5 μL 100× compound solution. For HPE and ZPE control wells, 0.5 μL 100% DMSO was added. 25 μL 2×IDO1 (His-tag) enzyme solution (containing L-ascorbic acid, methylene blue, and catalase) was added to each well. 25 μL reaction solution without IDO1 (His-tag) enzyme was added into HPE control well. The test plate was centrifugated at 1000 rpm for 1 minute to mix well. Then, the test plate was incubated at room temperature for 30 minutes. 25 μL above 2× substrate (L-tryptophan) solution was added to each well. The test plate was centrifugated at 1000 rpm for 1 minute to mix well. The detection plate was placed on ELISA (SpectraMax M5e), the temperature was set at 25° C., and the absorbance (OD value) was measured at 320 nm every 10 minutes till 60 minutes.<p id="p-0313" num="0311">Calculating the increase ratio of absorbance: the slope of the absorbance increase curve from 10 min to 60 min is derived from SpectralMax M5e. […]
# Indoleamine 2,3-dioxygenase 1, sequence (P14902 whole entry): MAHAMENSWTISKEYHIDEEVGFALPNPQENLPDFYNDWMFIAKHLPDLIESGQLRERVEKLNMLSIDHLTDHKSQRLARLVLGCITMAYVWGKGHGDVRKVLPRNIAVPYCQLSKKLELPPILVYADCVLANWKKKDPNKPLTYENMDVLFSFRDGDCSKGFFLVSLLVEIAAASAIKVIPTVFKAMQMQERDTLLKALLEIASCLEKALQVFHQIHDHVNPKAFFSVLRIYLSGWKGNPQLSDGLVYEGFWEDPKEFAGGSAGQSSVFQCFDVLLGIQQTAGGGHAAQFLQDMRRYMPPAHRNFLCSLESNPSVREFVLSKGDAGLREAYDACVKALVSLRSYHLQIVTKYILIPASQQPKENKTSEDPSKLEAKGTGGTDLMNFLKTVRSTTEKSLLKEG
row,IC50 [nM],SMILES
1,49,CNS(=O)(=O)CCCNc1nonc1/C(=N/O)Nc1ccc(F)c(Br)c1
2,172,CCNS(=O)(=O)CCCNc1nonc1C(=NO)Nc1ccc(F)c(Br)c1
3,281,CC(C)NS(=O)(=O)CCCNc1nonc1/C(=N/O)Nc1ccc(F)c(Br)c1
